Measurements reported in PubChem BioAssay (NCI).
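Protocol summary: plate cells (96-well), add compound at 5 concentrations, incubate 48 h, interpolate endpoints linearly. TGI denotes the concentration required for complete inhibition of growth.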

Columns and labels:
Test in all cases: inhibition of tumour cell growth, NCI panel, 48 h
OVCAR-4 ovarian = system: OVCAR-4 ovarian
NCI-H226 lung = system: NCI-H226 lung
SK-MEL-2 melanoma = system: SK-MEL-2 melanoma
OVCAR-8 ovarian = system: OVCAR-8 ovarian
IGROV1 ovarian = system: IGROV1 ovarian
HCT-15 colon = system: HCT-15 colon
SN12C renal = system: SN12C renal
HCT-116 colon = system: HCT-116 colon
HS 578T breast = system: HS 578T breast
RXF 393 renal = system: RXF 393 renal
UO-31 renal = system: UO-31 renal
HT29 colon = system: HT29 colon
SF-268 CNS = system: SF-268 CNS
A549 NSCLC = system: A549 NSCLC
MDA-MB-435 = system: MDA-MB-435
SK-OV-3 ovarian = system: SK-OV-3 ovarian
SF-295 CNS = system: SF-295 CNS
LOX IMVI melanoma = system: LOX IMVI melanoma
MALME-3M melanoma = system: MALME-3M melanoma
MOLT-4 leukemia = system: MOLT-4 leukemia
T-47D breast = system: T-47D breast
CAKI-1 renal = system: CAKI-1 renal
BT-549 breast = system: BT-549 breast
SNB-19 CNS = system: SNB-19 CNS
OVCAR-5 ovarian = system: OVCAR-5 ovarian
MCF7 breast = system: MCF7 breast
SK-MEL-5 melanoma = system: SK-MEL-5 melanoma
COLO 205 colon = system: COLO 205 colon
KM12 colon = system: KM12 colon
EKVX NSCLC = system: EKVX NSCLC
ACHN renal = system: ACHN renal
NCI-H460 lung = system: NCI-H460 lung
NCI-H23 lung = system: NCI-H23 lung
NCI-H522 lung = system: NCI-H522 lung
OVCAR-3 ovarian = system: OVCAR-3 ovarian
NCI/ADR-RES ovarian = system: NCI/ADR-RES ovarian
SK-MEL-28 melanoma = system: SK-MEL-28 melanoma
U251 CNS = system: U251 CNS
M14 melanoma = system: M14 melanoma
UACC-257 melanoma = system: UACC-257 melanoma
DU-145 prostate = system: DU-145 prostate
RPMI-8226 leukemia = system: RPMI-8226 leukemia
SF-539 CNS = system: SF-539 CNS
CCRF-CEM leukemia = system: CCRF-CEM leukemia
UACC-62 melanoma = system: UACC-62 melanoma
PC-3 prostate = system: PC-3 prostate
HOP-92 NSCLC = system: HOP-92 NSCLC
TK-10 renal = system: TK-10 renal
MDA-N = system: MDA-N
HOP-62 NSCLC = system: HOP-62 NSCLC
K-562 leukemia = system: K-562 leukemia
A498 renal = system: A498 renal
HCC-2998 colon = system: HCC-2998 colon
HL-60(TB) leukemia = system: HL-60(TB) leukemia
SR leukemia = system: SR leukemia
MDA-MB-231 breast = system: MDA-MB-231 breast
786-0 renal = system: 786-0 renal

O=C(C/C(=N/O)c1cc(-c2ccccc2)no1)c1ccccc1
TGI (OVCAR-4 ovarian): 65.8 µM | TGI (NCI-H226 lung): 56.7 µM | TGI (SK-MEL-2 melanoma): > 100 µM | TGI (OVCAR-8 ovarian): 40.3 µM | TGI (IGROV1 ovarian): 86 µM | TGI (HCT-15 colon): > 100 µM | TGI (SN12C renal): > 100 µM | TGI (HCT-116 colon): 60 µM | TGI (HS 578T breast): 66.6 µM | TGI (RXF 393 renal): 41.2 µM | TGI (UO-31 renal): > 100 µM | TGI (HT29 colon): > 100 µM | TGI (SF-268 CNS): 42.5 µM | TGI (A549 NSCLC): > 100 µM | TGI (MDA-MB-435): > 100 µM | TGI (SK-OV-3 ovarian): 38.4 µM | TGI (SF-295 CNS): > 100 µM | TGI (LOX IMVI melanoma): > 100 µM | TGI (MALME-3M melanoma): > 100 µM | TGI (MOLT-4 leukemia): > 100 µM | TGI (T-47D breast): > 100 µM | TGI (CAKI-1 renal): > 100 µM | TGI (BT-549 breast): 75.1 µM | TGI (SNB-19 CNS): 73.3 µM | TGI (OVCAR-5 ovarian): > 100 µM | TGI (MCF7 breast): > 100 µM | TGI (SK-MEL-5 melanoma): > 100 µM | TGI (COLO 205 colon): > 100 µM | TGI (KM12 colon): > 100 µM | TGI (EKVX NSCLC): > 100 µM | TGI (ACHN renal): > 100 µM | TGI (NCI-H460 lung): > 100 µM | TGI (NCI-H23 lung): 43.3 µM | TGI (NCI-H522 lung): 37.2 µM | TGI (OVCAR-3 ovarian): 41.9 µM | TGI (NCI/ADR-RES ovarian): 69.1 µM | TGI (SK-MEL-28 melanoma): > 100 µM | TGI (U251 CNS): 60.5 µM | TGI (M14 melanoma): > 100 µM | TGI (UACC-257 melanoma): > 100 µM | TGI (DU-145 prostate): > 100 µM | TGI (RPMI-8226 leukemia): > 100 µM | TGI (SF-539 CNS): 35 µM | TGI (CCRF-CEM leukemia): > 100 µM | TGI (UACC-62 melanoma): > 100 µM | TGI (PC-3 prostate): > 100 µM | TGI (HOP-92 NSCLC): 58 µM | TGI (TK-10 renal): > 100 µM | TGI (MDA-N): > 100 µM | TGI (HOP-62 NSCLC): 40.2 µM | TGI (K-562 leukemia): > 100 µM | TGI (A498 renal): > 100 µM | TGI (HCC-2998 colon): > 100 µM | TGI (HL-60(TB) leukemia): 74.6 µM | TGI (SR leukemia): > 100 µM | TGI (MDA-MB-231 breast): 46.1 µM | TGI (786-0 renal): 42.3 µM
